Data from US12139520B2 (priority 2020, dated 2024).
Bridge positions count the residues as written; N and C are the ends. Square brackets hold non-standard residues; d marks the D form. Peptide text beside a SMILES is read from it. Hyp = O=C(O)[C@@H]1C[C@@H](O)CN1

How the values were obtained:
[1] = Physical stability of peptide analogues (Thioflavin T fibrillation); type: physicochemical; settings: maximum ThT signal normalized between hAMY maximum and buffer background; 40° C., shaking, four days; pH 7 per table title
Procedure, shortened: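 Samples are stressed at 40 °C for four days, being shaken at 700 rpm before each 10-min fluorescence reading of 4 μM Thioflavin T. Buffers were pH 4 acetate or pH 7 phosphate. Reported values are smoothed maximum ThT signals as a percentage of the hAMY-to-background range.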

[2] = molecular target: T1, hAMY3 receptor (Homo sapiens, UniProt O60896+P30988); assay: cAMP assay for in vitro receptor activation, hAMY3-R; type: cell-based; settings: cAMP assay, hAMY3 receptor; read-out: hAMY3R EC50
T1 sequence (P30988 25-474): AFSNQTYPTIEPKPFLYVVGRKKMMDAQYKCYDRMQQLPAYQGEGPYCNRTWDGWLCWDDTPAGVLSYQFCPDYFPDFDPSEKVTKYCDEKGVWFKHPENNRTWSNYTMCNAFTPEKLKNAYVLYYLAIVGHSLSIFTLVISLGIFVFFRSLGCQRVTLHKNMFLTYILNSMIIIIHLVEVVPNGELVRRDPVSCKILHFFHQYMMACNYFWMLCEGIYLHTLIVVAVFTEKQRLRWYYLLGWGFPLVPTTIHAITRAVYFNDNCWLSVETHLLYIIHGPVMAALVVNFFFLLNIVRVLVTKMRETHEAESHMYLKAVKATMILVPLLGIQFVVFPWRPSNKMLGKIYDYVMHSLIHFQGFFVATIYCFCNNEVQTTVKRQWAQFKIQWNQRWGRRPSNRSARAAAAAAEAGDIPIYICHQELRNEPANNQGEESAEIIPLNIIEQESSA
T1 sequence (O60896 24-148 partner): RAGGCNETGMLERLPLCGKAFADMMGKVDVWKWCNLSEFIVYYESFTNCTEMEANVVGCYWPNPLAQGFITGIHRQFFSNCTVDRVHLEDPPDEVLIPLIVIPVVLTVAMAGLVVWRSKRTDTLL
Procedure, shortened: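 Accumulated cAMP was detected by time-resolved FRET one hour after reagent addition. Beforehand, hAMY3-R-overexpressing monoclonal cells (2000/well, DPBS, 0.05% casein, 0.5 mM IBMX) received graded doses of compound for 30 min at room temperature; human amylin served as positive control.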

SMILES | Max ThT signal (%) [1] [%] | EC50 [2] [nM]
CC[C@H](C)[C@H](NC(=O)[C@H](CCC(N)=O)NC(=O)[C@H](Cc1c[nH]cn1)NC(=O)[C@H](C)NC(=O)[C@H](CC(C)C)NC(=O)[C@H](CCCNC(=N)N)NC(=O)[C@H](CCC(N)=O)NC(=O)[C@@H](NC(=O)[C@@H](NC(=O)[C@@H]1CSSC[C@H](NC(=O)CN)C(=O)N[C@@H](CCCNC(=N)N)C(=O)N[C@@H]([C@@H](C)O)C(=O)NCC(=O)N[C@@H]([C@@H](C)O)C(=O)N1)[C@@H](C)O)C(C)C)C(=O)N[C@@H](Cc1ccc(O)cc1)C(=O)N[C@@H](CCC(N)=O)C(=O)N[C@@H](Cc1ccccc1)C(=O)N[C@H](C(=O)N[C@@H](CC(=O)O)C(=O)N[C@@H](CCCCN)C(=O)N[C@@H](CC(=O)O)C(=O)N[C@@H](CCCCN)C(=O)N[C@@H](CC(=O)O)C(=O)N[C@@H](CC(N)=O)C(=O)N[C@H](C(=O)N[C@@H](C)C(=O)N1CCC[C@H]1C(=O)N[C@@H](CCCNC(=N)N)C(=O)N[C@H](C(=O)N[C@@H](CC(N)=O)C(=O)N[C@H](C(=O)N[C@@H](CO)C(=O)N1CCC[C@H]1C(=O)N[C@@H](CC(N)=O)C(=O)NCC(=O)N1C[C@H](O)C[C@H]1C(N)=O)C(C)C)[C@@H](C)O)C(C)C)[C@@H](C)O [compound 163] (H-GCRTGTCTVQRLAHQIYQFTDKDKDNVAPRTNVSPNG[Hyp]-NH2; disulfide 2-7; N-terminus assumed) | 2.000 | 0.053
CC[C@H](C)[C@H](NC(=O)[C@H](CCC(N)=O)NC(=O)[C@H](Cc1c[nH]cn1)NC(=O)[C@H](C)NC(=O)[C@H](CC(C)C)NC(=O)[C@H](CCCNC(=N)N)NC(=O)[C@H](CCC(N)=O)NC(=O)[C@@H](NC(=O)[C@@H](NC(=O)[C@@H]1CSSC[C@H](NC(=O)CN)C(=O)N[C@@H](CCCNC(=N)N)C(=O)N[C@@H]([C@@H](C)O)C(=O)NCC(=O)N[C@@H]([C@@H](C)O)C(=O)N1)[C@@H](C)O)C(C)C)C(=O)N[C@@H](Cc1ccc(O)cc1)C(=O)N[C@@H](CCC(N)=O)C(=O)N[C@@H](Cc1ccccc1)C(=O)N[C@H](C(=O)N[C@@H](CC(=O)O)C(=O)N[C@@H](CCCCN)C(=O)N[C@@H](CC(=O)O)C(=O)N[C@@H](CCCCN)C(=O)N[C@@H](CC(=O)O)C(=O)N[C@@H](CC(N)=O)C(=O)N[C@H](C(=O)N[C@@H](C)C(=O)N1CCC[C@H]1C(=O)N[C@@H](CCCNC(=N)N)C(=O)N[C@H](C(=O)N[C@@H](CC(N)=O)C(=O)N[C@H](C(=O)NCC(=O)N1CCC[C@H]1C(=O)N[C@@H](CCC(N)=O)C(=O)NCC(=O)N1C[C@H](O)C[C@H]1C(N)=O)C(C)C)[C@@H](C)O)C(C)C)[C@@H](C)O [compound 49] (H-GCRTGTCTVQRLAHQIYQFTDKDKDNVAPRTNVGPQG[Hyp]-NH2; disulfide 2-7; N-terminus assumed) | 3.200 | 0.011
CC[C@H](C)[C@H](NC(=O)[C@H](CCC(N)=O)NC(=O)[C@H](Cc1c[nH]cn1)NC(=O)[C@H](C)NC(=O)[C@H](CC(C)C)NC(=O)[C@H](CCCNC(=N)N)NC(=O)[C@H](CCC(N)=O)NC(=O)[C@@H](NC(=O)[C@@H](NC(=O)[C@@H]1CSSC[C@H](NC(=O)CN)C(=O)N[C@@H](CCCNC(=N)N)C(=O)N[C@@H](Cc2ccccc2)C(=O)NCC(=O)N[C@@H]([C@@H](C)O)C(=O)N1)[C@@H](C)O)C(C)C)C(=O)N[C@@H](Cc1ccc(O)cc1)C(=O)N[C@@H](CCC(N)=O)C(=O)N[C@@H](Cc1ccccc1)C(=O)N[C@H](C(=O)N[C@@H](CC(=O)O)C(=O)N[C@@H](CCCCN)C(=O)N[C@@H](CC(=O)O)C(=O)N[C@@H](CCCCN)C(=O)N[C@@H](CC(=O)O)C(=O)N[C@@H](CC(N)=O)C(=O)N[C@H](C(=O)N[C@@H](C)C(=O)N1CCC[C@H]1C(=O)N[C@@H](CCCNC(=N)N)C(=O)N[C@H](C(=O)N[C@@H](CCCCN)C(=O)N[C@H](C(=O)N[C@@H](CO)C(=O)N1CCC[C@H]1C(=O)N[C@@H](CCC(N)=O)C(=O)NCC(=O)N1C[C@H](O)C[C@H]1C(N)=O)[C@@H](C)CC)[C@@H](C)O)C(C)C)[C@@H](C)O [compound 146] (H-GCRFGTCTVQRLAHQIYQFTDKDKDNVAPRTKISPQG[Hyp]-NH2; disulfide 2-7; N-terminus assumed) | 3.600 | 0.04

Continued, values first:

Max ThT signal (%) [1] [%] | EC50 [2] [nM] | SMILES
3.250 | 0.051 | CC[C@H](C)[C@H](NC(=O)[C@H](CCC(N)=O)NC(=O)[C@H](Cc1c[nH]cn1)NC(=O)[C@H](C)NC(=O)[C@H](CC(C)C)NC(=O)[C@H](Cc1c[nH]c2ccccc12)NC(=O)[C@H](CCC(N)=O)NC(=O)[C@@H](NC(=O)[C@@H](NC(=O)[C@@H]1CSSC[C@H](NC(=O)CN)C(=O)N[C@@H](CCCNC(=N)N)C(=O)N[C@@H](Cc2ccccc2)C(=O)NCC(=O)N[C@@H]([C@@H](C)O)C(=O)N1)[C@@H](C)O)C(C)C)C(=O)N[C@@H](Cc1ccc(O)cc1)C(=O)N[C@@H](CCC(N)=O)C(=O)N[C@@H](Cc1ccccc1)C(=O)N[C@H](C(=O)N[C@@H](CC(=O)O)C(=O)N[C@@H](CCCCN)C(=O)N[C@@H](CC(=O)O)C(=O)N[C@@H](CCCCN)C(=O)N[C@@H](CC(=O)O)C(=O)N[C@@H](CC(N)=O)C(=O)N[C@H](C(=O)N[C@@H](C)C(=O)N1CCC[C@H]1C(=O)N[C@@H](CCCNC(=N)N)C(=O)N[C@@H](CO)C(=O)N[C@@H](CC(N)=O)C(=O)N[C@H](C(=O)N[C@@H](CO)C(=O)N1CCC[C@H]1C(=O)N[C@@H](CCC(N)=O)C(=O)NCC(=O)N[C@@H](Cc1ccc(O)cc1)C(N)=O)C(C)C)C(C)C)[C@@H](C)O [compound 345] (H-GCRFGTCTVQWLAHQIYQFTDKDKDNVAPRSNVSPQGY-NH2; disulfide 2-7; N-terminus assumed)
15.600 | 0.085 | CC[C@H](C)[C@H](NC(=O)[C@H](CCC(N)=O)NC(=O)[C@H](Cc1c[nH]cn1)NC(=O)[C@H](C)NC(=O)[C@H](CC(C)C)NC(=O)[C@H](CCCNC(=N)N)NC(=O)[C@H](CCC(N)=O)NC(=O)[C@@H](NC(=O)[C@@H](NC(=O)[C@@H]1CSSC[C@H](NC(=O)CN)C(=O)N[C@@H](CCCNC(=N)N)C(=O)N[C@@H](Cc2ccccc2)C(=O)NCC(=O)N[C@@H]([C@@H](C)O)C(=O)N1)[C@@H](C)O)C(C)C)C(=O)N[C@@H](Cc1ccc(O)cc1)C(=O)N[C@@H](CCC(N)=O)C(=O)N[C@@H](Cc1ccccc1)C(=O)N[C@H](C(=O)N[C@@H](CC(=O)O)C(=O)N[C@@H](CCCCN)C(=O)N[C@@H](CC(=O)O)C(=O)N[C@@H](CCCCN)C(=O)N[C@@H](CC(=O)O)C(=O)N[C@@H](CC(N)=O)C(=O)N[C@H](C(=O)N[C@@H](C)C(=O)N1CCC[C@H]1C(=O)N[C@@H](CCCNC(=N)N)C(=O)N[C@@H](CO)C(=O)N[C@@H](CC(N)=O)C(=O)N[C@H](C(=O)N[C@@H](CO)C(=O)N1CCC[C@H]1C(=O)N[C@@H](CCC(N)=O)C(=O)NCC(=O)N[C@@H](Cc1ccc(O)cc1)C(N)=O)[C@@H](C)CC)C(C)C)[C@@H](C)O [compound 182] (H-GCRFGTCTVQRLAHQIYQFTDKDKDNVAPRSNISPQGY-NH2; disulfide 2-7; N-terminus assumed)
